Laboratory results: patent US7094911B2, “Biphenyl and biphenyl-analogous compounds as integrin antagonists” (Bayer Aktiengesellschaft, priority 1998, dated 2006)

melting point | Compound
126 °C | O=C(O)C[C@@H](NS(=O)(=O)c1cccc(-c2cccc(NC(=O)NCc3cccnc3)c2)c1)c1ccccc1 [Example 4.92]
112 °C | C[C@@H](NS(=O)(=O)c1cccc(-c2cccc(NC(=O)NCC(F)(F)C(F)(F)F)c2)c1)C(=O)O [Example 4.93]
152 °C | CCCCNC(=O)Nc1cccc(-c2cccc(S(=O)(=O)N[C@H](CC(=O)O)c3ccccc3)c2)c1 [Example 4.94]
186 °C | O=C(O)C[C@@H](NS(=O)(=O)c1cccc(-c2cccc(NC(=O)NCc3ccc(C(F)(F)F)cc3)c2)c1)c1ccccc1 [Example 4.95]
156 °C | CCCCNC(=O)Nc1cccc(-c2ccc(OC)c(S(=O)(=O)N[C@@H](CC(=O)O)c3ccccc3)c2)c1 [Example 4.96]
162 °C | COc1ccc(-c2cccc(NC(=O)NCc3ccc(F)cc3)c2)cc1S(=O)(=O)N[C@@H](CC(=O)O)c1ccccc1 [Example 4.97]
116 °C | CCCNC(=O)Nc1ccc(-c2ccc(OC)c(S(=O)(=O)NC(CC(=O)O)c3ccccc3)c2)cc1 (centres unmarked) [Example 4.98]
> 240 °C | COc1ccc(-c2cccc(NC(=O)Nc3nccs3)c2)cc1S(=O)(=O)NC(CC(=O)O)c1ccccc1 (centres unmarked) [Example 4.99]
> 240 °C | COc1ccc(-c2cccc(NC(=O)NCC(F)(F)F)c2)cc1S(=O)(=O)NC(CC(=O)O)c1ccccc1 (centres unmarked) [Example 4.100]
> 240 °C | COc1ccc(-c2cccc(NC(=O)NCCSC(F)(F)F)c2)cc1S(=O)(=O)NC(CC(=O)O)c1ccccc1 (centres unmarked) [Example 4.101]
> 240 °C | COc1ccc(-c2cccc(NC(=O)NCc3ccc(C(F)(F)F)cc3)c2)cc1S(=O)(=O)NC(CC(=O)O)c1ccccc1 (centres unmarked) [Example 4.102]
> 240 °C | COc1ccc(-c2cccc(NC(=O)/N=c3\[nH]c4ccc(C(=O)O)cc4[nH]3)c2)cc1S(=O)(=O)NC(CC(=O)O)c1ccccc1 (centres unmarked) [Example 4.103]
> 240 °C | COc1ccc(-c2cccc(NC(=O)N=c3[nH]c4cc(C)c(C)cc4[nH]3)c2)cc1S(=O)(=O)NC(CC(=O)O)c1ccccc1 (centres unmarked) [Example 4.104]
> 240 °C | COc1ccc2[nH]/c(=N\C(=O)Nc3cccc(-c4ccc(OC)c(S(=O)(=O)NC(CC(=O)O)c5ccccc5)c4)c3)[nH]c2c1 (centres unmarked) [Example 4.105]
> 240 °C | COc1ccc(-c2cccc(NC(=O)Nc3nncs3)c2)cc1S(=O)(=O)NC(CC(=O)O)c1ccccc1 (centres unmarked) [Example 4.106]
117 °C | CN(CC(=O)O)S(=O)(=O)c1cccc(-c2cccc(NC(=O)NC3CC3)c2)c1 [Example 6.11]
90 °C | CCCNC(=O)Nc1cccc(-c2cccc(S(=O)(=O)N(C)CC(=O)O)c2)c1 [Example 6.12]
184 °C | CN(CC(=O)O)S(=O)(=O)c1cccc(-c2cccc(NC(=O)N=c3[nH]c4ccccc4[nH]3)c2)c1 [Example 6.13]
142 °C | CN(CC(=O)O)S(=O)(=O)c1cccc(-c2cccc(NC(=O)Nc3ccncc3)c2)c1 [Example 6.14]

melting point | Compound
90 °C | N#C/N=C(\NCc1ccccc1)Nc1cccc(-c2cccc(S(=O)(=O)NC(CC(=O)O)c3ccccc3)c2)c1 (centres unmarked) [Example 10.1.5, 3-[(3′-{[(benzylamino)(cyanoimino)methyl]amino}[1,1′-biphenyl]-3-yl)sulfonylamino]-3-phenyl-propanoic acid]
120 °C | N#C/N=C(/Nc1cccc(-c2cccc(S(=O)(=O)NC(CC(=O)O)c3ccccc3)c2)c1)NC1CC1 (centres unmarked) [Example 10.3.5, 3-[(3′-{[(cyclopropylamino)(cyanoimino)methyl]amino}[1,1′-biphenyl]-3-yl)sulfonylamino]-3-phenyl-propanoic acid]
178 °C | CC1(C)[C@H]2CCC1(CS(=O)(=O)N[C@@H](Cc1ccc(-c3cccc(N/C(=N/C#N)NC4CC4)c3)cc1)C(=O)O)C(=O)C2 [Example 10.5]
184 °C | CCCN/C(=N\C#N)Nc1cccc(-c2ccc(C[C@H](NS(=O)(=O)c3c(C)cc(C)cc3C)C(=O)O)cc2)c1 [Example 10.6]
169 °C | Cc1cc(C)c(S(=O)(=O)N[C@@H](Cc2ccc(-c3cccc(N/C(=N/C#N)NCc4ccccc4)c3)cc2)C(=O)O)c(C)c1 [Example 10.8]
174 °C (dec.) | Cc1cc(C)c(S(=O)(=O)N[C@@H](Cc2ccc(-c3cccc(N/C(=N/C#N)NCc4ccccn4)c3)cc2)C(=O)O)c(C)c1 [Example 10.9]
149 °C | Cc1cc(C)c(S(=O)(=O)N[C@@H](Cc2ccc(-c3cccc(N/C(=C/[N+](=O)[O-])NC4CC4)c3)cc2)C(=O)O)c(C)c1 [Example 12.1.5, (2S)-3-(3′-{[(E)-1-(cyclopropylamino)-2-nitroethenyl]amino}[1,1′-biphenyl]-4-yl)-2-[(mesitylsulfonyl)amino]-propanoic acid]
150 °C (dec.) | C=CCN/C(=C\[N+](=O)[O-])Nc1cccc(-c2ccc(C[C@H](NS(=O)(=O)CC34CC[C@@H](CC3=O)C4(C)C)C(=O)O)cc2)c1 [Example 12.5]
185 °C (dec.) | C#CCN/C(=C\[N+](=O)[O-])Nc1cccc(-c2ccc(C[C@H](NS(=O)(=O)CC34CC[C@@H](CC3=O)C4(C)C)C(=O)O)cc2)c1 [Example 12.6]
126 °C (dec.) | CC1(C)[C@H]2CCC1(CS(=O)(=O)N[C@@H](Cc1ccc(-c3cccc(N/C(=C/[N+](=O)[O-])NCc4ccccn4)c3)cc1)C(=O)O)C(=O)C2 [Example 12.7]
170 °C | CC1(C)[C@H]2CCC1(CS(=O)(=O)N[C@@H](Cc1ccc(-c3cccc(N/C(=C/[N+](=O)[O-])NCc4cccnc4)c3)cc1)C(=O)O)C(=O)C2 [Example 12.8]
151 °C (dec.) | CC1(C)[C@H]2CCC1(CS(=O)(=O)N[C@@H](Cc1ccc(-c3cccc(N/C(=C/[N+](=O)[O-])NC4CCC4)c3)cc1)C(=O)O)C(=O)C2 [Example 12.9]
164 °C | Cc1cc(C)c(S(=O)(=O)N[C@@H](Cc2ccc(-c3cccc(Nc4c(NC5CC5)c(=O)c4=O)c3)cc2)C(=O)O)c(C)c1 [Example 13.1.3, (2S)-3-(3′-{[2-(cyclopropylamino)-3,4-dioxo-1-cyclobuten-1-yl]-amino}[1,1′-biphenyl]-4-yl)-2-[(mesitylsulfonyl)amino]-propanoic acid]
204 °C (dec.) | O=C(O)CNS(=O)(=O)c1cccc(-c2cccc(Nc3c(NC4CC4)c(=O)c3=O)c2)c1 [Example 13.2]
214 °C (dec.) | Cc1cc(C)c(S(=O)(=O)N[C@@H](Cc2ccc(-c3cccc(Nc4c(NCc5ccccn5)c(=O)c4=O)c3)cc2)C(=O)O)c(C)c1 [Example 13.3]
226 °C (dec.) | Cc1cc(C)c(S(=O)(=O)N[C@@H](Cc2ccc(-c3cccc(Nc4c(NCc5ccccc5)c(=O)c4=O)c3)cc2)C(=O)O)c(C)c1 [Example 13.4]
152 °C | CC1(C)[C@H]2CCC1(CS(=O)(=O)N[C@@H](Cc1ccc(-c3cccc(NC4=C(NC5CC5)C(=O)C4O)c3)cc1)C(=O)O)C(=O)C2 (some centres unmarked) [Example 13.5]
191 °C (dec.) | O=C(O)CC(NS(=O)(=O)c1cccc(-c2cccc(Nc3c(Nc4nc5ccccc5[nH]4)c(=O)c3=O)c2)c1)c1ccccc1 (centres unmarked) [Example 13.6]
214 °C (dec.) | O=C(O)CC(NS(=O)(=O)c1cccc(-c2cccc(Nc3c(NC4CC4)c(=O)c3=O)c2)c1)c1ccccc1 (centres unmarked) [Example 13.7]
